Test results reported in article PMC11412156 (Journal of medicinal chemistry, 2024).
pIC50: −log10 of the molar value.

Assays:
Format in all cases: biochemical
[1] = biological target: T1, HDAC8 (Homo sapiens, UniProt Q9BY41); test: HDAC enzyme-based fluorogenic assay, HDAC8; details: read-out: HDAC8 IC50; mean of at least three experiments
T1 sequence (Q9BY41 1-377): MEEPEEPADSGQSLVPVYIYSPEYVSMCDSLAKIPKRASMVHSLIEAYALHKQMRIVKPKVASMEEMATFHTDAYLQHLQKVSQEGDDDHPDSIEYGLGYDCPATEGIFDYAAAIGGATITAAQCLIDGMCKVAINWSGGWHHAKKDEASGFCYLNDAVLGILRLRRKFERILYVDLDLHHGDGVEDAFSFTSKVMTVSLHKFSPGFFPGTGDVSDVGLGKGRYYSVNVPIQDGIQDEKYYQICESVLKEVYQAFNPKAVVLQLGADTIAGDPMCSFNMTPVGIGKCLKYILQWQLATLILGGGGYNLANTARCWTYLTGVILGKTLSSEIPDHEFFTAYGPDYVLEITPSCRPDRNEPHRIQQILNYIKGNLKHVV

[2] = biological target: HDAC2 (Homo sapiens, UniProt Q92769); test: HDAC enzyme-based fluorogenic assay, HDAC2; details: read-out: HDAC2 IC50; mean of at least three experiments
[3] = biological target: HDAC3 (Homo sapiens, UniProt O15379); test: HDAC enzyme-based fluorogenic assay, HDAC3; details: read-out: HDAC3 IC50; mean of at least three experiments
[4] = biological target: HDAC1 (Homo sapiens, UniProt Q13547); test: HDAC enzyme-based fluorogenic assay, HDAC1; details: read-out: HDAC1 IC50; mean of at least three experiments
[5] = biological target: T2, HDAC6 (Homo sapiens, UniProt Q9UBN7); test: HDAC enzyme-based fluorogenic assay, HDAC6; details: for HDAC6 inhibitor rate: final concentration of 2 μM, preliminary screen; for pIC50: read-out: HDAC6 IC50, mean of at least three experiments
T2 sequence (Q9UBN7 1-1215): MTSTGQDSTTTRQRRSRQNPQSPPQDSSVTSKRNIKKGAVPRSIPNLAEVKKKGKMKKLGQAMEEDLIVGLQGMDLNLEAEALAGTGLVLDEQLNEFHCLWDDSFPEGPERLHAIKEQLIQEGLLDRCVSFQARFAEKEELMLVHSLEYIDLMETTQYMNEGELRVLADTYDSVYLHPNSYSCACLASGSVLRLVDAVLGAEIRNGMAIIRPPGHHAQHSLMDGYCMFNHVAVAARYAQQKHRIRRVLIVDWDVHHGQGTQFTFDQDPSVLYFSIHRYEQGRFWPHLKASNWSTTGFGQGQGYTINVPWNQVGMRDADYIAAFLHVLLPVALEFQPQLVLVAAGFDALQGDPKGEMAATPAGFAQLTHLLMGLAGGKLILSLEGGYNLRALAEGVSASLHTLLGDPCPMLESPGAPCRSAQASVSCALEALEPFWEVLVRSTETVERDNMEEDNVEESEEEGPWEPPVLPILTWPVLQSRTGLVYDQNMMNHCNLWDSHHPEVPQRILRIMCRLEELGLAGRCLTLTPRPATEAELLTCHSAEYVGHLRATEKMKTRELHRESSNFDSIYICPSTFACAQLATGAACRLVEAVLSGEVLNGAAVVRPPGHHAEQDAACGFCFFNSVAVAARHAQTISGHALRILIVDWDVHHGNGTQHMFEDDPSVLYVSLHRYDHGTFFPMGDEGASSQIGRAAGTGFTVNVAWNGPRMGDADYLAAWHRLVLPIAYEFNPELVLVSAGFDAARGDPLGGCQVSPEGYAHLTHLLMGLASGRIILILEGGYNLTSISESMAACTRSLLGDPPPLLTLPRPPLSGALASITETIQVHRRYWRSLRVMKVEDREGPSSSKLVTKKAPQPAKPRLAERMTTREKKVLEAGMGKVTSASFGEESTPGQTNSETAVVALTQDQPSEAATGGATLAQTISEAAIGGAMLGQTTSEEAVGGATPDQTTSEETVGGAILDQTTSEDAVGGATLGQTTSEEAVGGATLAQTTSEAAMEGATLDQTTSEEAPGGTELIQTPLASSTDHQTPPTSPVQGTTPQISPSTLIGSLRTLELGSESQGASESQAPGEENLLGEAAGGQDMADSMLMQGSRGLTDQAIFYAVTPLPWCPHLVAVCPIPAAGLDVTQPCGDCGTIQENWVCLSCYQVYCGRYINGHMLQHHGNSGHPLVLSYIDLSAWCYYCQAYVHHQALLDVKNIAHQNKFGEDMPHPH

[6] = biological target: T3, HDAC11 (Homo sapiens, UniProt Q96DB2); test: HDAC enzyme-based fluorogenic assay, HDAC11; details: read-out: HDAC11 IC50; mean of at least three experiments
T3 sequence (Q96DB2 1-347): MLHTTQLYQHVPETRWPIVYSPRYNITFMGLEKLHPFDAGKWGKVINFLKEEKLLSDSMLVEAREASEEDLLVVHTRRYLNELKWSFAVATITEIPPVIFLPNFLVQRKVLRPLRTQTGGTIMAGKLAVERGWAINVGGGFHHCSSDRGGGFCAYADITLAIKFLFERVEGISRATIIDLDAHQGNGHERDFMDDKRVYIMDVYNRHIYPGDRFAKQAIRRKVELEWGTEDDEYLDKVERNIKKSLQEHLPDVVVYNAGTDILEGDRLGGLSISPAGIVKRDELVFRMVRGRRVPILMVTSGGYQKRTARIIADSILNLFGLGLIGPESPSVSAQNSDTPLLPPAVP

Sequence of HDAC3 (O15379 whole entry): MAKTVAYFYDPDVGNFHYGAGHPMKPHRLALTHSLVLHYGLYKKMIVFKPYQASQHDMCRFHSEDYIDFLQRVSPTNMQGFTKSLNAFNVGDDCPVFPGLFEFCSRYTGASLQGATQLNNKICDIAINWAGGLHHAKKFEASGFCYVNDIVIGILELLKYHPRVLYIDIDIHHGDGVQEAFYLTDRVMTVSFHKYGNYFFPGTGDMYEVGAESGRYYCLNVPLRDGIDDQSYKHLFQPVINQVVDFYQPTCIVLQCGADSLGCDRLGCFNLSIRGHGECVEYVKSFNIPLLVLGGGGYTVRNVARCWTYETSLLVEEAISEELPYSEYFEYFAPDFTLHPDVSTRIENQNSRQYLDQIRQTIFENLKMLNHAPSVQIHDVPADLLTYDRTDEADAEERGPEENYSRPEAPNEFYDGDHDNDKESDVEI
Sequence of HDAC3 (Q9Y618 395-489 partner limits assumed): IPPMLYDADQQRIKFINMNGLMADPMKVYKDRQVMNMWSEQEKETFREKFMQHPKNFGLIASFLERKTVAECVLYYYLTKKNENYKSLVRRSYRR
Sequence of HDAC2 (Q92769 whole entry): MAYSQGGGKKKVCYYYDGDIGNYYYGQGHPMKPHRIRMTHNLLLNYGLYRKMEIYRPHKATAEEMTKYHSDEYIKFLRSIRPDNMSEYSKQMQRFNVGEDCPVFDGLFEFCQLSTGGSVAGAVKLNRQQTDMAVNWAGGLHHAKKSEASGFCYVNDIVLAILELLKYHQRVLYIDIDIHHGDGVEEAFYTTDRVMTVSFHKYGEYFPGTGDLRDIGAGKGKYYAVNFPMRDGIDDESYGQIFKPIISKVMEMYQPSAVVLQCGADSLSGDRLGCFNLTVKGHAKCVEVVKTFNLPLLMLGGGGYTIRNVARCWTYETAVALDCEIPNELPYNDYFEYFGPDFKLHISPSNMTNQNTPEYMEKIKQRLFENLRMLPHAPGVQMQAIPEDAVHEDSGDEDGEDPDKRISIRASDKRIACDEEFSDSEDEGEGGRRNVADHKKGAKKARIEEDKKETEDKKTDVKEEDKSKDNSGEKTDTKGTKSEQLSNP
Sequence of HDAC1 (Q13547 whole entry): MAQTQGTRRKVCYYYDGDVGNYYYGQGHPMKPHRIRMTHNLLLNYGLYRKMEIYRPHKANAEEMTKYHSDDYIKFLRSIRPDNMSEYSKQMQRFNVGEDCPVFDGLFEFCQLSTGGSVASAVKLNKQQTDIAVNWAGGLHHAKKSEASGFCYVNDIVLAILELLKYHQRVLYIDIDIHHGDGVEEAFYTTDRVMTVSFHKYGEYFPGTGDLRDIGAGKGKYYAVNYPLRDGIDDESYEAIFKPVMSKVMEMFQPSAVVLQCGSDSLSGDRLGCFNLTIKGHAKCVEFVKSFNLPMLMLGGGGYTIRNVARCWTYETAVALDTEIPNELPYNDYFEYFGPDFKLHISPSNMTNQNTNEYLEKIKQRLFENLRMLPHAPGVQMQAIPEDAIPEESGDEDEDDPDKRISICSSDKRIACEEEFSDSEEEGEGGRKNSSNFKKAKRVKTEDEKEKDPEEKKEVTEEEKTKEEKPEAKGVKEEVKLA

Compound | pIC50 [1] | pIC50 [2] | pIC50 [3] | pIC50 [4] | HDAC6 inhibitor rate [5] | pIC50 [5] | pIC50 [6]
C[C@]12CC3CC(Nc4c(Nc5ccc(C(=O)N6CCC[C@H](C(=O)NCCCCCC(=O)NO)C6)cc5)c(=O)c4=O)(C1)C[C@@](C)(C3)C2 [Compound 40c, (S)-1-(4-((2-(((1r,3R,5S,7r)-3,5-Dimethyladamantan-1-yl)amino)-3,4-dioxocyclobut-1-en-1-yl)amino)benzoyl)-N-(6-(hydroxyamino)-6-oxohexyl)piperidine-3-carbo-xamide] | 6.28 | 5.51 | 5.38 | 5.99 | 98.49% | 6.55 | 7.08
CC12CC3CC(C)(C1)CC(Nc1c(Nc4ccc(C(=O)N5CCC[C@H](C(=O)NCCCCCCC(=O)NO)C5)cc4)c(=O)c1=O)(C3)C2 [Compound 40d, (S)-1-(4-((2-(((1r,3R,5S,7r)-3,5-Dimethyladamantan-1-yl)amino)-3,4-dioxocyclobut-1-en-1-yl)amino)benzoyl)-N-(7-(hydroxyamino)-7-oxoheptyl)piperidine-3-carboxamide] | 6.80 | 5.60 | 5.84 | 6.38 | 99.66% | 6.79 | 6.62
